Results published in patent US20060217345A1, “Beta-L-nucleosides and use thereof as pharmaceutical agents for the treatment of viral diseases” (priority 2003, published 2006).
Where two headings read alike, the source gives them in different places.

How the values were obtained:
[1] = tested on: HBV replication in HepG2 2.2.15 cells; test: Antiviral activity: reduction of extracellular HBV DNA in HepG2 2.2.15 cells; format: cell-based, hepatitis B virus; details: read-out: ED50 values (concentration resulting in 50% reduction of HBV DNA in the medium of the cells)
Experimental: The antiviral efficacy of the compounds of at least one embodiment was investigated on HepG2 2.2.15 cells, a human hepatoblastoma cell line which has the replication-competent HBV genome stably integrated therein and produces infectious progeny viruses in a productive manner (Sells et al., Proc Natl Acad Sci USA 1987, 84: 1005-1009).
The above cells were cultured under standardized conditions as specified by Korba and Gerin, and the amount of extracellular viral DNA was determined (Korba et al., Antiviral Res 1992, 19: 55-70).
Following passaging, the HepG2 2.2.15 cells were seeded at a density of about 60% in 12-well plates and cultured to confluence in 10% FBS Dulbecco MEM. Thereafter, the medium was changed to 2% FBS, and the cells were cultured for another 24 hours.
After another change of medium, the cells were treated with varying concentrations of compounds according to at least one embodiment. Every 24 hours the compounds were re-added together with the medium. […]
Following treatment of the culture supernatants with proteinase K, the extracellular viral DNA was amplified by means of PCR using the following primers (forward: 5′-CTCCAGTTCAGGAACAGTAAACCC-3′; reverse: 5′-TTGTGAGCTCAGAAAGGCCTTGTAAGTTGGCG-3′. The PCR products were separated on 1% agarose, stained with ethidium bromide and quantified using a Fluor-S™ Multimager (Biorad).
For calibration of the PCR reaction, serial dilutions of the pUC19 HBV and pTHBV plasmids with known genome equivalents (GE) were used, resulting in a lower detection limit of about 10^3 GE and a linearity between 10^3 and 10^5 GE.

HBV replication = details: 5-modified β-L-cytosine nucleosides; compares with compounds with non-modified bases; cited from earlier work
HBV DNA polymerase = target: T1, HBV DNA polymerase (Hepatitis B virus genotype D subtype ayw, UniProt P03156); test: Inhibition of endogenous HBV DNA polymerase activity (3H-dCTP incorporation); format: biochemical; details: nucleoside triphosphates; purified virus particles from patient serum; 0.7 μM dCTP; two-hour incubation at 37° C.; read-out: IC50 (50% inhibition of the HBV DNA polymerase activity)
T1 construct: 30 μl of polymerase batch included about 2-4×10^8 purified virus particles (lysed beforehand); from tissue; host or cells: Serum of patients infected with hepatitis B virus (Charité, Berlin); virus particles purified through a saccharose gradient and lysed
Experimental: Synthesis and purification of the triphosphates of β-L-5-methylcytidine nucleosides were effected according to well-known methods (Yoshikawa et al., Tetradedron Lett 1967, 50: 5065-5068; Hoard et Ott, J Am Chem Soc 1965, 87: 1785-1788).
To determine the endogenous HBV DNA polymerase activity, about 60 ml of serum from patients with hepatitis B virus infections from Charité, Berlin (>10^7 HBV particles/ml), was centrifuged at 3000 rpm, followed by sedimentation of the virus particles at 25,000 g, 60 min, taking up in 7 ml of TKM buffer (50 mM Tris-HCl, pH 7.5, 50 mM KCl, 5 mM MgCl2), and centrifugation through a saccharose gradient (0.3 M, 0.6 M, 0.9 M saccharose in 10 ml of TKM buffer each time) at 25,000 g for 20 hours. The purified virus sediment was suspended in 400 μl of TKM using ultrasound, divided in aliquots and frozen at −80° C. (Davies et al., Antiviral Res 1996, 30: 133-145).
30 μl of polymerase batch included about 2-4×10^8 purified virus particles (lysed beforehand in 6% β-mercaptoethanol, 10% Igepal for 15 min at room temperature), 42 mM Tris-HCl, (pH 7.5), 34 mM MgCl2, 340 mM KCl, 22 mM β-mercaptoethanol, 0.4% Igepal, 70 μM TTP, dATP, dGTP and 1 μCi ^3H-dCTP (=0.7 μM dCTP) (Matthes et al., Antimicrob Agents & Chemoth 1991, 35: 1254-1257) and varying concentrations of β-L-5-methylcytidine nucleoside triphosphates.
Following a two-hour incubation at 37° C., 20 μl of each batch was placed on paper filter, washed 5 times with 5% trichloroacetic acid and 0.1% Na pyrophosphate, and the ^3H-dCTP incorporated in the HBV DNA was subsequently measured in a Liquid Scintillation Counter.
Using the concentration-dependent inhibition curves of HBV DNA synthesis, the concentration of β-L-5-methylcytidine nucleoside triphosphates resulting in 50% inhibition of the HBV DNA polymerase activity was determined. The IC50 values are illustrated in Table 2.

HL-60 cells = test: Cytotoxicity: inhibition of proliferation of HL-60 cells; format: cell-based, human; details: RPMI medium, incubated for two days
Experimental: (§1) To this end, established cells of a human myeloid leukemia (HL-60) in RPMI medium, and the above-mentioned HepG2 cells in Dulbecco MEM, respectively, were incubated for two days using varying concentrations of compounds, and the proliferation rate of the cells was subsequently determined. The data was used to determine the concentration of compounds resulting in 50% inhibition of proliferation (CD50).

HepG2 cells = test: Cytotoxicity: inhibition of proliferation of HepG2 cells; format: cell-based, human; details: Hep G2 cells, Dulbecco MEM, incubated for two days
Experimental: as §1

HBV infections = details: treatment of HBV infections; cited from earlier work
[2] = HepG2 2.2.15 cells, extracellular HBV DNA by PCR, after 9 days of incubation

T1 sequence (P03156 whole entry): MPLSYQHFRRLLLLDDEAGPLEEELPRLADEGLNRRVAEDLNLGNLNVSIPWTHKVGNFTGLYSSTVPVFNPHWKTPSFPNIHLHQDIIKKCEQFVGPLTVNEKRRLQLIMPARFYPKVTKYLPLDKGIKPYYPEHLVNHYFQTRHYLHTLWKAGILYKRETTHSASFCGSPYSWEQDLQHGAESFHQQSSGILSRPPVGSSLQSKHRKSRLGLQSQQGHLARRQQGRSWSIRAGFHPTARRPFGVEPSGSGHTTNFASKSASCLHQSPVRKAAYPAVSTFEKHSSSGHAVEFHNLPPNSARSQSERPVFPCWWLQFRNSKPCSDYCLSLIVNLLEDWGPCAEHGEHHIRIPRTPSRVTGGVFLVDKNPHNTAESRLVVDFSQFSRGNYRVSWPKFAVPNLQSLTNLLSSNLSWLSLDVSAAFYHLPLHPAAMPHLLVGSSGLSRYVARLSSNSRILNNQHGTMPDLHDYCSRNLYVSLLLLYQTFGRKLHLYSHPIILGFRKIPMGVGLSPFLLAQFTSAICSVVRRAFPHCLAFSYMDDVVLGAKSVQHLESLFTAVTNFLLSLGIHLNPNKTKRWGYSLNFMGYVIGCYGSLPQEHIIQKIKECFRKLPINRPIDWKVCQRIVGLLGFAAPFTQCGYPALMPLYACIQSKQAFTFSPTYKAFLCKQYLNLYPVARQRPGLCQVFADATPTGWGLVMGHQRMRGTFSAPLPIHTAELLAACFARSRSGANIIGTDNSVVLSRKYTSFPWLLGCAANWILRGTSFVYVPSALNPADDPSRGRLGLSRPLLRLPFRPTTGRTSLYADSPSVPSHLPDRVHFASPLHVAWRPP

Compound: Nc1ccn([C@@H]2CS[C@H](CO)O2)c(=O)n1 [3TC, β-L-2′,3′-dideoxy-3′-thiacytidine, reference compound]
- EC50 ([1]; Hepatitis B virus, 216 h, HepG2 2.2.15 cells, extracellular HBV DNA by PCR, after 9 days of incubation): 100 to 200 nM

Compound: Nc1nc(=O)n([C@H]2C[C@H](O)[C@@H](CO)O2)cc1Cl [CldC, β-L-deoxy-5-chlorocytidine]
- effect with respect to HBV replication, as described in the literature (HBV replication): ineffective or sparingly effective

Compound: Nc1nc(=O)n([C@H]2C[C@H](O)[C@@H](CO)O2)cc1F [FdC, β-L-deoxy-5-fluorocytidine]
- effect with respect to HBV replication, as described in the literature (HBV replication): less effective

Compound: Nc1nc(=O)n(C2OC(CO)C=C2F)cc1F [L-2′F-ddeFC, β-L-2′,3′-dideoxy-2′,3′-didehydro-2′-fluoro-5-fluorocytidine]
- effect with respect to HBV replication, as described in the literature (HBV replication): equally effective

Compound: Nc1nc(=O)n([C@H]2O[C@@H](CO)[C@H](O)[C@H]2O)cc1F [L-AraFC, β-L-arabinofuranosyl-5-fluorocytosine]
- effect with respect to HBV replication, as described in the literature (HBV replication): no effect

Compound: Nc1nc(=O)n([C@H]2O[C@@H](CO)[C@H](O)[C@H]2F)cc1Br [L-FABrC, β-L-2′-fluoroarabinofuranosyl-5-bromocytosine]
- effect with respect to HBV replication, as described in the literature (HBV replication): ineffective or sparingly effective

Compound: Nc1nc(=O)n([C@H]2O[C@@H](CO)[C@H](O)[C@H]2F)cc1Cl [L-FAC1C, β-L-2′-fluoroarabinofuranosyl-5-chlorocytidine]
- effect with respect to HBV replication, as described in the literature (HBV replication): ineffective or sparingly effective

Compound: Nc1nc(=O)n([C@H]2O[C@@H](CO)[C@H](O)[C@H]2F)cc1F [L-FAFC, β-L-2′-fluoroarabinofuranosyl-5-fluorocytosine]
- effect with respect to HBV replication, as described in the literature (HBV replication): no effect

Compound: Nc1nc(=O)n([C@H]2CC[C@@H](CO)O2)cc1F [L-FddC, β-L-2′,3′-dideoxy-5-fluorocytidine]
- effect with respect to HBV replication, as described in the literature (HBV replication): equally effective

Compound: Nc1nc(=O)n([C@@H]2C=C[C@H](CO)O2)cc1F [L-FddeC, β-L-2′,3′-dideoxy-2′,3′-didehydro-5-fluorocytidine]
- effect with respect to HBV replication, as described in the literature (HBV replication): more effective

Compound: Nc1ccn([C@@H]2CS[C@H](COP(=O)(O)OP(=O)(O)OP(=O)(O)O)O2)c(=O)n1 [Triphosphate of 3TC, reference compound]
- IC50 (HBV DNA polymerase): 300 nM

Compound: Cc1cn([C@H]2O[C@@H](COP(=O)(O)OP(=O)(O)OP(=O)(O)O)[C@H](O)[C@H]2O)c(=O)nc1N [Triphosphate of β-L-AraMetC]
- IC50 (HBV DNA polymerase): 10800 nM

Compound: Cc1cn([C@@H]2C[C@@H](O)[C@H](COP(=O)(O)OP(=O)(O)OP(=O)(O)O)O2)c(=O)nc1N [Triphosphate of β-L-MetCdR]
- IC50 (HBV DNA polymerase): 900 nM

Compound: Cc1cn([C@@H]2C[C@@H](N=[N+]=[N-])[C@H](COP(=O)(O)OP(=O)(O)OP(=O)(O)O)O2)c(=O)nc1N [Triphosphate of β-L-N3MetCdR]
- IC50 (HBV DNA polymerase): 800 nM

Compound: Cc1cn([C@@H]2CC[C@H](COP(=O)(O)OP(=O)(O)OP(=O)(O)O)O2)c(=O)nc1N [Triphosphate of β-L-ddMetCdR]
- IC50 (HBV DNA polymerase): 6500 nM

Compound: Cc1cn([C@@H]2C=C[C@H](COP(=O)(O)OP(=O)(O)OP(=O)(O)O)O2)c(=O)nc1N [Triphosphate of β-L-ddeMetCdR]
- IC50 (HBV DNA polymerase): 6200 nM

Compound: Cc1cn([C@@H]2C[C@@H](F)[C@H](CO)O2)c(=O)nc1N [β-L-2′,3′-dideoxy-3′-fluoro-5-methylcytidine]
- effect with respect to HBV replication, as described in the literature (HBV replication): ineffective or sparingly effective

Compound: Nc1nc(=O)n(C2CSC(CO)O2)cc1Br [β-L-2′,3′-dideoxy-3′-thia-5-bromocytidine]
- effect with respect to HBV replication, as described in the literature (HBV replication): ineffective or sparingly effective

Compound: Nc1nc(=O)n(C2CSC(CO)O2)cc1Cl [β-L-2′,3′-dideoxy-3′-thia-5-chlorocytidine]
- effect with respect to HBV replication, as described in the literature (HBV replication): ineffective or sparingly effective

Compound: Cc1cn(C2CSC(CO)O2)c(=O)nc1N [β-L-2′,3′-dideoxy-3′-thia-5-methylcytidine]
- effect with respect to HBV replication, as described in the literature (HBV replication): ineffective or sparingly effective

Compound: Cc1cn([C@H]2O[C@@H](CO)[C@H](O)[C@H]2O)c(=O)nc1N [β-L-AraMetC, 1-β-L-arabinofuranosyl-5-methylcytosine]
- EC50 ([1]; Hepatitis B virus, HepG2 2.2.15, 216 h): > 20000 nM
- Cytotoxicity (CD50), concentration resulting in 50% inhibition of proliferation (HL-60 cells): >2000
- Cytotoxicity (CD50), concentration resulting in 50% inhibition of proliferation (HepG2 cells): >2000

Compound: Cc1cn([C@@H]2C[C@@H](O)[C@H](CO)O2)c(=O)nc1N [β-L-MetCdR, β-L-5-methyldeoxycytidine]
- EC50 [1, 2]: 270 to 600 nM
- Cytotoxicity (CD50), concentration resulting in 50% inhibition of proliferation (HL-60 cells): >2000
- Cytotoxicity (CD50), concentration resulting in 50% inhibition of proliferation (HepG2 cells): >2000

Compound: Cc1cn([C@@H]2C[C@@H](N=[N+]=[N-])[C@H](CO)O2)c(=O)nc1N [β-L-N3MetCdR, β-L-3′-azido-2′,3′-dideoxy-5-methylcytidine]
- EC50 [1, 2]: 350 to 950 nM
- Cytotoxicity (CD50), concentration resulting in 50% inhibition of proliferation (HL-60 cells): 2000
- Cytotoxicity (CD50), concentration resulting in 50% inhibition of proliferation (HepG2 cells): >2000

Compound: Cc1cn([C@@H]2CC[C@H](CO)O2)c(=O)nc1N [β-L-ddMetC, β-L-2′,3′-dideoxy-5-methylcytidine]
- EC50 [1, 2]: > 20000 nM

Compound: Cc1cn([C@@H]2C=C[C@H](CO)O2)c(=O)nc1N [β-L-ddeMetC, β-L-2′,3′-didehydro-2′,3′-dideoxy-5-methylcytidine]
- EC50 [1, 2]: > 20000 nM
- Cytotoxicity (CD50), concentration resulting in 50% inhibition of proliferation (HL-60 cells): 600
- Cytotoxicity (CD50), concentration resulting in 50% inhibition of proliferation (HepG2 cells): 1500

Compound: α-interferon
- proportion of the patients in whom it is effective (HBV infections): about 33%
